Source: patent US7554012B2, “Plants and plant cells exhibiting resistance to AMPA, and methods for making the same” (priority 1998, dated 2009)

What was measured:
[1] = tested on: Wheat immature embryos; experiment: Wheat embryo germination assay; assay type: in vivo; conditions: for Germinating root length / Germinating shoot length: ten days
Experimental: Wheat immature embryos were exposed to different concentrations of AMPA and N-acetyl-AMPA in a wheat embryo germination assay. MMSO base media was prepared containing 40 grams per liter maltose, 2 grams per liter GELRITE™, MS salts, and vitamins. Salts, vitamins, and maltose were dissolved in 3500 ml water and the pH was adjusted to 5.8. 500 ml was dispensed into a separate bottle along with 1 gram of GELRITE™ and autoclaved for 17 minutes. After the medium had cooled to about 45° C., AMPA or N-acetyl-AMPA was added to a defined concentration. The mixture was poured into six square Sundae cups under sterile conditions and allowed to solidify.
Immature wheat embryos were isolated from twenty day old seedlings (after anther formation) and inoculated into each MMSO media. Each Sundae cup contained nine immature embryo's. Three separate plates were used for each concentration of AMPA (0, 0.1, 0.15, 0.2, 0.25, 0.3, and 1.0 mM) or N-acetyl-AMPA (0, 0.1, 0.3, 1.0, and 3.0 mM). Sundae cups were incubated for ten days and the length of roots and shoots were determined and compared.

[2] = tested on: tobacco lines 33476, 36779, 37235; experiment: [^14C]-glyphosate metabolism in R1 tobacco plants; assay type: in vivo
Excerpt: Seed from Ro transformation events were obtained after self crossing in growth chamber conditions. Ro seed were cured and planted to generate R1 progeny. Source leaves of R1 progeny at the five leaf stage were exposed to [^14C]-glyphosate by spotting a 2 microliter sample onto each vein (50 microliters of [^14C]-glyphosate Na+ salt, 517,000 dpm/microgram, 0.42 microgram/microliter mixed with 10 microliters of glycerol). Each leaf received several spots depending on the number of veins on that leaf. Three days later 15 additional 2 microliter spots were applied to each leaf. Two weeks later, five 2 microliter spots were applied to each of two leaves on each plant. These were new leaves and were not the older leaves to which glyphosate was initially applied. Five days after this last application, about 300 milligrams of tissue was sampled from two sink leaves on each plant. The samples from each plant were homogenized in separate 1 ml volumes of deionized water, centrifuged at 9,000 RPM in a microcentrifuge, and the aqueous volumes were collected and stored on ice. Extracts were analyzed by HPLC for the presence of [^14C] labeled metabolites as in Example 2. […] In addition, the lack of a bleaching effect in line 36779 after exposure to glyphosate is consistent with the presence of functional GOX and PhnO enzymes and the absence of detectable [^14C]-AMPA.

For `NCP(=O)(O)O` [AMPA, N-aminomethyl phosphonic acid], the Germinating root length ([1]; 0.10 mM) was 8.0 ± 2.0 cm, the Germinating shoot length ([1]; 0.10 mM) was 11.7 ± 2.5 cm and the Germinating root length ([1]; 0.15 mM) was 6.3 ± 1.7 cm. It also gave a Germinating shoot length ([1]; 0.15 mM) of 11.3 ± 2.1 cm, a Germinating root length ([1]; 0.20 mM) of 4.6 ± 2.1 cm and a Germinating shoot length ([1]; 0.20 mM) of 9.2 ± 1.8 cm. The Germinating root length ([1]; 0.25 mM) was 3.1 ± 1.6 cm, the Germinating shoot length ([1]; 0.25 mM) was 8.5 ± 1.8 cm and the Germinating root length ([1]; 0.30 mM) was 2.6 ± 1.6 cm. For the same compound, the Germinating shoot length ([1]; 0.30 mM) was 6.6 ± 1.8 cm, the “germination of immature embryos” value ([1]; 1.00 mM) was “eliminated the germination” and the Germinating root length ([1]; 1.00 mM) was 0.4 ± 0.1 cm. The Germinating shoot length ([1]; 1.00 mM) was 0.9 ± 0.1 cm, the “concentrations not substantially inhibitory to growth and elongation of immature embryos” value ([1]; in vivo) was “under 0.2 mM” and the “concentrations severely inhibitory to both shoot and root elongation” value ([1]; in vivo) was “above 0.2 mM”.
For N-phosphono-methyl-glycine [Glyphosate], the “[^14C] labeled metabolites in sink leaf extract” value (shortened to “[^14C] labeled metabolites”) ([2]; line 33476 (GOX)) was “only [^14C]-AMPA”, the “[^14C] labeled metabolites” value ([2]; line 36779) was “Only N-acetyl-[^14C]-AMPA” and the “[^14C] labeled metabolites” value ([2]; line 37235) was “non-metabolized [^14C]-glyphosate as well as a trace but measurable amount of [^14C]-AMPA”.
